From patent US11396511B2, “Substituted 9,13b-dihydro-1H-dibenzo[c,f]imidazo[1,5-a]azepin-3-ylbenzamides as anti-inflammatory and analgesic agents” (FRONTBIO CO., LTD., priority 2017, dated 2022)
Where “and” joins values, the source holds several entries; their conditions need not be identical. Equal values may be shown once.

Columns and labels:
Raw 264.7 cells [1] = assay: Measurement of NO production in LPS-stimulated Raw 264.7 cells; type: cell-based; details: for inhibition at 12.5 µM / inhibition at 25 µM / inhibition at 50 µM / inhibition at 100 µM: Mus musculus, RAW264.7, LPS 100 ng/ml, 24 h; for reduction of NO production (in words): together with LPS (100 ng/ml)
Procedure: Raw 264.7 cells were plated in a 96-well cell culture plate (50,000 cells/well). Lipopolysaccharide (LPS) was diluted to 100 ng/ml and the dilution was added to the cell culture media The LPS stimulus was applied for 24 h to induce the activity of the Raw 264.7 cells and supernatants (50 μl each) obtained from the 96-well cell culture plate were plated in a new plate. 50 μl of a sulfanilamide solution was added and the reaction was allowed to proceed for 10 min. 50 μl of a NED solution was added and the reaction was allowed to proceed for 10 min. The amount of NO produced from the cells in the cell culture media was determined by measuring the absorbance at a wavelength of 540 nm.

Raw 264.7 cells [2] = assay: Cell viability measurement (MTS); type: cell-based
Procedure: Raw 264.7 cells were plated in a 96-well cell culture plate (50,000 cells/well). The cell culture media were removed from the 96-well cell culture plate. 100 μl of MTS reagent (CellTiter 96 AQueous One Solution Cell Proliferation Assay, Promega) was added to each well and the reaction was allowed to proceed at 37° C. for 20 min. After the reaction was finished, the cell viability were determined by measuring the absorbance at a wavelength of 490 nm.

[3] = tested on: streptozotocin-induced diabetic mice; assay: Von-frey test in diabetic neuropathy models; type: in vivo; parameters: threshold values (Von-frey test): unit not given here; details: for analgesic efficacy, Von-frey test (in words): oral 10, 20, 40, 80 mg/kg; for concentration of highest analgesic efficacy, Von-frey test: oral 10, 20, 40, 80 mg/kg tested
Procedure: 65 mg/kg of streptozotocin (Sigma Corp., USA) was dissolved at a concentration of 15 mg/ml in 0.1 M citrate buffer at pH 4.5 and the resulting solution was administered intraperitoneally to mice. Blood glucose levels were measured 1 week after administration and streptozotocin-induced diabetic mice were chosen.
After damage to the sciatic nerve, allodynia induced by the mechanical stimulus was measured. Mice were housed in acrylic chambers on a steel mesh floor and acclimated for ≥60 min before testing. Continuous responses were evaluated using Von-frey filaments by the up-down method. The filaments were brought into vertical contact with the affected left soles and the contact was maintained for 5-6 sec. The response was considered to be positive when the mouse rapidly avoided the stimulus, startled or licked its sole. The Von-frey filaments were first used to stimulate the mice.
The inhibitory effects of the test substances on pain were determined in diabetic neuropathy models. To this end, after oral administration of each test substance at concentrations of 10, 20, 40, and 80 mg/kg, threshold values were measured at different periods of time through Von-frey test.

mice [4] = assay: Writhing test (1% acetic acid intraperitoneally); type: in vivo; details: for numbers of stretching and writhing movements: 30 min pretreatment
Procedure: In accordance with the most common method for measuring the analgesic efficacies of the test substances in the peripheral nerve based on abdominal contraction responses as indices, 1% acetic acid was administered intraperitoneally to mice to induce damage or pain of the abdominal peripheral vessels. After acetic acid administration, the behavioral profiles of the mice were observed and the numbers of stretching and writhing movements of the mice were counted to determine the analgesic efficacies of the test substances.
30 min after pretreatment with the compound 3 (E-S) at concentrations of 10, 20, 40, and 80 mg/kg, writhing test was conducted to assess the analgesic efficacy of the compound 3. As a result, the analgesic efficacy of the compound 3 was concentration-dependent (FIG. 4a and Table 4). The analgesic efficacy of the compound 4 (E-A) was assessed in the same manner as that of the compound 3.

Akt = assay: Western blot analysis, Akt signaling by LPS signals; type: cell-based
Procedure: (§1) Cells were harvested, washed with 1×PBS, and suspended by adding a mixture of a protein extraction buffer (150 mM NaCl, 50 mM Tris-HCl pH 7.4, 5 mM EDTA pH 8.0, 1% NP-40) and a protease inhibitor cocktail. Then, the reaction was allowed to proceed in ice for 20 min, sonicated, and centrifuged (13,000 rpm, 30 min). The concentration of proteins in the supernatant was quantified by a BCA protein assay and proteins were separated on the basis of size on an SDS-PAGE gel. Thereafter, proteins were transferred to a PVDF membrane and blocked with skim milk for 1 h. Primary and secondary antibodies were coupled and photosensitized with ECL solution to determine the expression levels of desired proteins.

mice [5] = assay: Hot-plate test; type: in vivo; details: for response time to the thermal stimulus (hot-plate): 30 min pretreatment, in s (unit assumed); for analgesic efficacy in hot-plate test (in words): 10, 20, 40, 80 mg/kg
Procedure: Hot-plate test was conducted using an electric heater to measure the analgesic activity of the test substances on the acute thermal stimulus. Experimental animals were injected with the test drugs and a vehicle (control) and were sequentially placed on an electric heater (hot-plate). The response time to the thermal stimulus ([…]) was defined as the time until the experimental animal licked their paws. Male mice weighing 22-25 g, aged 4-5 weeks, were used as the test animals (10 per group).
30 min after pretreatment with the compound 3 (E-S) at concentrations of 10, 20, 40, and 80 mg/kg, hot-plate test was conducted to assess the analgesic efficacy of the compound 3. […] The analgesic efficacy of the compound 4 (E-A) was assessed in the same manner as that of the compound 3.

MAPK = assay: Western blot analysis, MAPK signaling by LPS signals; type: cell-based
Procedure: as §1

SMILES: O=C(NC1=NCC2c3ccccc3Cc3ccccc3N12)c1ccccc1O (stereo not shown) [E-S, N-(9,13b-dihydro-1H-dibenzo[c,f]imidazo[1,5-a]azepin-3-yl)-2-hydroxybenzamide]
- inhibition at 12.5 µM (Raw 264.7 cells [1]): 0%
- inhibition at 25 µM (Raw 264.7 cells [1]): 9.47%
- inhibition at 50 µM (Raw 264.7 cells [1]): 30.8%
- inhibition at 100 µM (Raw 264.7 cells [1]): 40.8%
- reduction of NO production (in words) (Raw 264.7 cells [1]): concentration-dependent reduction in NO production
- cell toxicity (cell viability, MTS) (Raw 264.7 cells [2]): no cell toxicities were observed
- threshold values (Von-frey test) ([3]; oral 10 mg/kg, 1 h): 0.247
- threshold values (Von-frey test) ([3]; oral 10 mg/kg, 2 h): 0.208
- threshold values (Von-frey test) ([3]; oral 10 mg/kg, 3 h): 0.363
- threshold values (Von-frey test) ([3]; oral 10 mg/kg, 4 h): 0.330
- threshold values (Von-frey test) ([3]; oral 10 mg/kg, 5 h): 0.286
- threshold values (Von-frey test) ([3]; oral 10 mg/kg, basal): 0.247
- threshold values (Von-frey test) ([3]; oral 20 mg/kg, 1 h): 0.286
- threshold values (Von-frey test) ([3]; oral 20 mg/kg, 2 h): 0.208
- threshold values (Von-frey test) ([3]; oral 20 mg/kg, 3 h): 0.314
- threshold values (Von-frey test) ([3]; oral 20 mg/kg, 4 h): 0.186
- threshold values (Von-frey test) ([3]; oral 20 mg/kg, 5 h): 0.324
- threshold values (Von-frey test) ([3]; oral 20 mg/kg, basal): 0.208
- threshold values (Von-frey test) ([3]; oral 40 mg/kg, 1 h): 0.314
- threshold values (Von-frey test) ([3]; oral 40 mg/kg, 2 h): 0.391
- threshold values (Von-frey test) ([3]; oral 40 mg/kg, 3 h): 0.352
- threshold values (Von-frey test) ([3]; oral 40 mg/kg, 4 h): 0.314
- threshold values (Von-frey test) ([3]; oral 40 mg/kg, 5 h): 0.391
- threshold values (Von-frey test) ([3]; oral 40 mg/kg, basal): 0.225
- threshold values (Von-frey test) ([3]; oral 80 mg/kg, 1 h): 0.613
- threshold values (Von-frey test) ([3]; oral 80 mg/kg, 2 h): 0.574
- threshold values (Von-frey test) ([3]; oral 80 mg/kg, 3 h): 0.391
- threshold values (Von-frey test) ([3]; oral 80 mg/kg, 4 h): 0.419
- threshold values (Von-frey test) ([3]; oral 80 mg/kg, 5 h): 0.225
- threshold values (Von-frey test) ([3]; oral 80 mg/kg, basal): 0.164
- analgesic efficacy, Von-frey test (in words) [3]: concentration-dependent until 1-2 h after treatment
- concentration of highest analgesic efficacy, Von-frey test [3]: 80 mg/kg
- numbers of stretching and writhing movements (mice [4]; 10 mg/kg): 33.75
- numbers of stretching and writhing movements (mice [4]; 20 mg/kg): 29.75
- numbers of stretching and writhing movements (mice [4]; 40 mg/kg): 23.75
- numbers of stretching and writhing movements (mice [4]; 80 mg/kg): 12.75
- analgesic efficacy in writhing test (in words) (mice [4]; 10, 20, 40, 80 mg/kg): concentration-dependent
- phosphorylation of Akt by LPS (Akt; 100 uM): observed to decrease
- response time to the thermal stimulus (hot-plate) (mice [5]; 10 mg/kg): 8.64
- response time to the thermal stimulus (hot-plate) (mice [5]; 20 mg/kg): 13.34
- response time to the thermal stimulus (hot-plate) (mice [5]; 40 mg/kg): 15.52
- response time to the thermal stimulus (hot-plate) (mice [5]; 80 mg/kg): 19.30
- analgesic efficacy in hot-plate test (in words) (mice [5]): significant at 40 and 80 mg/kg
- effect on MAPK signaling by LPS signals (MAPK): did not appear to significantly affect MAPK signaling

SMILES: CC(=O)Oc1ccccc1C(=O)NC1=NCC2c3ccccc3Cc3ccccc3N12 (stereo not shown) [E-A, 2-((9,13b-dihydro-1H-dibenzo[c,f]imidazo[1,5-a]azepin-3-yl)carbamoyl)phenyl acetate]
- inhibition at 12.5 µM (Raw 264.7 cells [1]): 0%
- inhibition at 25 µM (Raw 264.7 cells [1]): 17.1%
- inhibition at 50 µM (Raw 264.7 cells [1]): 40.1%
- inhibition at 100 µM (Raw 264.7 cells [1]): 52.4%
- reduction of NO production (in words) (Raw 264.7 cells [1]): concentration-dependent reduction in NO production
- cell toxicity (cell viability, MTS) (Raw 264.7 cells [2]): no cell toxicities were observed
- threshold values (Von-frey test) ([3]; oral 10 mg/kg, 1 h): 0.260
- threshold values (Von-frey test) ([3]; oral 10 mg/kg, 2 h): 0.263
- threshold values (Von-frey test) ([3]; oral 10 mg/kg, 3 h): 0.324
- threshold values (Von-frey test) ([3]; oral 10 mg/kg, 4 h): 0.286
- threshold values (Von-frey test) ([3]; oral 10 mg/kg, 5 h): 0.225
- threshold values (Von-frey test) ([3]; oral 10 mg/kg, basal): 0.286
- threshold values (Von-frey test) ([3]; oral 20 mg/kg, 1 h): 0.263
- threshold values (Von-frey test) ([3]; oral 20 mg/kg, 2 h): 0.324
- threshold values (Von-frey test) ([3]; oral 20 mg/kg, 3 h): 0.321
- threshold values (Von-frey test) ([3]; oral 20 mg/kg, 4 h): 0.247
- threshold values (Von-frey test) ([3]; oral 20 mg/kg, 5 h): 0.225
- threshold values (Von-frey test) ([3]; oral 20 mg/kg, basal): 0.186
- threshold values (Von-frey test) ([3]; oral 40 mg/kg, 1 h): 0.286
- threshold values (Von-frey test) ([3]; oral 40 mg/kg, 2 h): 0.458
- threshold values (Von-frey test) ([3]; oral 40 mg/kg, 3 h): 0.419
- threshold values (Von-frey test) ([3]; oral 40 mg/kg, 4 h): 0.391
- threshold values (Von-frey test) ([3]; oral 40 mg/kg, 5 h): 0.186
- threshold values (Von-frey test) ([3]; oral 40 mg/kg, basal): 0.247
- threshold values (Von-frey test) ([3]; oral 80 mg/kg, 1 h): 0.391
- threshold values (Von-frey test) ([3]; oral 80 mg/kg, 2 h): 0.391
- threshold values (Von-frey test) ([3]; oral 80 mg/kg, 3 h): 0.247
- threshold values (Von-frey test) ([3]; oral 80 mg/kg, 4 h): 0.286
- threshold values (Von-frey test) ([3]; oral 80 mg/kg, 5 h): 0.186
- threshold values (Von-frey test) ([3]; oral 80 mg/kg, basal): 0.208
- analgesic efficacy, Von-frey test (in words) [3]: concentration-dependent from 1 h after treatment and was maintained until 3 h after treatment
- concentration of highest analgesic efficacy, Von-frey test [3]: 40 mg/kg and 80 mg/kg
- numbers of stretching and writhing movements (mice [4]; 10 mg/kg): 8.25
- numbers of stretching and writhing movements (mice [4]; 20 mg/kg): 13.75
- numbers of stretching and writhing movements (mice [4]; 40 mg/kg): 11.25
- numbers of stretching and writhing movements (mice [4]; 80 mg/kg): 12.25
- concentration of best analgesic efficacy in writhing test (mice [4]; 10, 20, 40, 80 mg/kg tested): 10 mg/kg
- effect on Akt signaling by LPS signals (Akt): found to affect both MAPK signaling and Akt signaling by LPS signals and reduce the activity of proteins
- response time to the thermal stimulus (hot-plate) (mice [5]; 10 mg/kg): 9.58
- response time to the thermal stimulus (hot-plate) (mice [5]; 20 mg/kg): 14.98
- response time to the thermal stimulus (hot-plate) (mice [5]; 40 mg/kg): 17.42
- response time to the thermal stimulus (hot-plate) (mice [5]; 80 mg/kg): 18.30
- analgesic efficacy in hot-plate test (in words) (mice [5]): observed in the 2nd phase
- effect on MAPK signaling by LPS signals (MAPK): found to affect both MAPK signaling and Akt signaling by LPS signals and reduce the activity of proteins
